Assay results published in US8143274B2, “1-(2H)-isoquinolone derivative” (Chugai Seiyaku Kabushiki Kaisha, priority 2004, dated 2012).

Columns and labels:
[1] = tested on: human colon cancer cell line HCT116; assay: Measurement of cell growth inhibitory activity (Cell Counting Kit-8); type: cell-based; conditions: HCT-116, 96 h, HCT116, 2,000 cells/well, cultured 4 days
Experimental: [Measurement of Cell Growth Inhibitory Activity]
Several representative examples of the compound group of the present invention were measured in terms of cell growth inhibitory activity.
Cancer cell growth inhibitory activity was measured using Cell Counting Kit-8 manufactured by Dojindo Laboratories. The human colon cancer cell line HCT116 obtained from American Type Culture Collection (Virginia, U.S.A) was inoculated in a 96-well culture plate at a concentration of 2,000 cells/well. Thereafter, a certain concentration of compound was added thereto, and the obtained mixture was then cultured at 37° C. in 5% CO2 for 4 days. On the 4th day of the culture, a Cell Counting Kit-8 solution was added to the culture product, and absorbance (measurement wavelength: 450 nm; reference wavelength: 615 nm) was measured in accordance with protocols included with the kit. Thereafter, 50% growth inhibitory concentration (IC50) was calculated.

[2] = tested on: human colon cancer cell line HCT116 transplanted subcutaneously; assay: Measurement of antitumor effect in HCT116 tumor-bearing nude mouse; type: in vivo, BALB/c nude mouse; conditions: oral, administered twice (initiation date and 3 days after)
Experimental: [Measurement of Antitumor Effect]
A representative example of the compound group of the present invention was measured in terms of antitumor effect.
Such antitumor effect was examined, using a tumor-bearing mouse produced by transplanting the human colon cancer cell line HCT116 obtained from American Type Culture Collection (Virginia, U.S.A) into the inguinal subcutis of a BALB/c nude mouse purchased from Charles River Laboratories Japan, Inc. The purchased nude mouse was quarantined for 1 week. Thereafter, approximately 5×10^6 HCT116 cells were transplanted subcutaneously. When the size of a tumor thereof became about 200 mm^3, the mouse was subjected to the present experiment.
Each compound was dissolved or suspended in a solution to be administered, and 0.5 ml of the solution was orally administered. Such administration was carried out twice in total, that is, on the initiation date of administration and 3 days after the administration. The antitumor effect was calculated as a tumor growth inhibition by comparing the solution administration group with a control group in terms of tumor growth. Tumor growth inhibition(TGI)=(1−the tumor growth amount of agent-treated group/the tumor growth amount of control group)×100(%)

Structure (SMILES)	IC50 [1] [nM]	TGI (%) on day 7 ([2]; dose 12.5 mg/kg) [%]	TGI (%) on day 7 ([2]; dose 50 mg/kg) [%]	TGI (%) on day 7 ([2]; dose 200 mg/kg) [%]
O=c1[nH]c(-c2ccccc2)cc2ccc(N3CCOCC3)cc12 [Compound 8, 7-morpholin-4-yl-3-phenyl-2H-isoquinolin-1-one]	28	96		
O=c1[nH]c(-c2ccccc2C(F)(F)F)cc2ccc(N3CCCCC3)cc12 [Compound 10, 7-piperidin-1-yl-3-(2-trifluoromethylphenyl)-2H-isoquinolin-1-one]	97		91	
O=c1[nH]c(-c2ccccc2)cc2ccc(N3CCC(CO)CC3)cc12 [Compound 21, 7-(4-hydroxymethylpiperidin-1-yl)-3-phenyl-2H-isoquinolin-1-one]	20			
O=c1[nH]c(-c2ccccc2C(F)(F)F)cc2ccc(N3CCC(O)CC3)cc12 [Compound 29, 7-(4-hydroxypiperidin-1-yl)-3-(2-trifluoromethylphenyl)-2H-isoquinolin-1-one]	52			
O=c1[nH]c(-c2ccccc2)cc2ccc(N3CCC(O)C3)cc12 (stereo not drawn) [Compound 36, 7-(3-hydroxypyrrolidin-1-yl)-3-phenyl-2H-isoquinolin-1-one]	18			
CCOC(=O)Nc1ccc2cc(-c3ccccc3C(F)(F)F)[nH]c(=O)c2c1 [Compound 61, ethyl[1-oxo-3-(2-trifluoromethylphenyl)-1,2-dihydroisoquinolin-7-yl]carbamate]	21			73
